In brackets after ≈: the same amount, converted by molar mass. Where a name gives a salt, the structure may show the parent alone. Read-outs that look alike come from different tables or passages of the source.
What was measured:
[1] = tested on: rabbit atrium; assay: Isolated rabbit atrium test (refractory period); format: cell-based; details: Oryctolagus cuniculus, read-out: EC50 (50% of maximal increase in refractory period)
Experimental: In the rabbit atrium test, the left atrium is placed in Chenoweth's solution warmed to 30° C. and irrigated with 95% oxygen:5% carbon dioxide. The lower end of the atrium is attached to a small hook fixed in the bath and the upper end is connected to a transducer to record contractile activity. The atrium is electrically stimulated at a basic rate of 30 per minute employing square wave pulses of 10 millisecond duration at 1.2-1.5 times threshold voltage. The test compound is introduced into the bath and the test repeated after a 5 minute interval. A dose response relationship is obtained by additional doses of the test compound. Potency of a test agent can be expressed as the effective concentration which produces 50% of the maximal increase in the measured refractory period of the steady state atrium. This value is designated the EC50.

[2] = Diuretic test in rats according to the Lipschitz method (urine volume and electrolyte excretion vs urea control); format: in vivo; details: rat
Experimental: The compounds of the present invention are evaluated as diuretics according to the method of W. L. Lipschitz, et al., J. Pharmacol. Expt. Therap., 79, 97 (1943). In this method, groups of 8 rats are fasted 18 hours prior to the experiment. A control group is hydrated orally with 25 ml. per kilogram of body weight of isotonic saline solution which is also the vehicle used for dosing the test compound. One control group received a dose of 960 mg./kg. of body weight of urea. Animals of other groups are tested with various doses of the test compound. Immediately after treatment, the animals are placed in metabolism cages (two rats of the same group per cage) and maintained without food or water for 5 hours. The volume of urine excreted by each pair is determined after this period and the pooled urine is analyzed for sodium, potassium, and chloride ions. […] In this test, the N-phenyl amidines of Formula I were orally administered in doses ranging from 2.7 to 25 mg./kg. of body weight.
One of the disadvantages associated with diuretics such as the thiazides is believed to stem largely from increased excretion of potassium ion concomitant with water elimination. […] As stated hereinabove,excessive excretion of potassium ion may cause an electrolyte imbalance resulting in adverse side effects.

[3] = tested on: rabbit ileum; assay: In vitro smooth muscle relaxant test, isolated rabbit ileum with spasmogen; format: cell-based; details: from EC50 vs spasmogen, papaverine = reference
Experimental: Smooth muscle relaxant activity of the compounds of the present invention can be measured in standard in vitro and in vivo pharmacological tests. One such in vitro test is carried out essentially as follows. A segment of rabbit ileum is suspended and oxygenated in Tyrode's solution and affixed to a tension transducer for electronic recording of isometric contractions. After controlled responses to a standard dose of a spasmogen such as barium chloride (0.25 mg./ml.), acetyl choline chloride (1.0 mcg./ml.), etc., are established, the test compound is added and the response to the spasmogen, in the presence of the test agent, again determined. Test compound effect is measured as the percentage reduction in the response to the spasmogen, in the presence of the test compound, from the mean control response. A minimum of four trials is obtained with each of two to five different concentrations of the test compound. The data are expressed in log dose response curves and estimates made therefrom of the EC50 (concentration causing 50% reduction in response of the tissue to the spasmogen). In general, the effect of compounds identified by Formula I on the rabbit ileum is similar to papaverine, a well-known smooth muscle relaxant. […]

[4] = tested on: intestinal smooth muscle; assay: In vivo intestinal smooth muscle relaxation in anesthetized cat (intraduodenal pressure)
Experimental: Intestinal smooth muscle relaxant activity can also be measured in an in vivo cat preparation. In this test, a balloon is inserted through a small incision in the stomach of an anesthetized cat to a point about 10 cm. down the duodenum and intralumenal intestinal pressure changes recorded. A solution or suspension of the test agent is administered intraduodenally about 2 cm. beyond the balloon placed for recording intraduodenal pressure in volume doses of 1 ml./kg. body weight. This means of administration mimics oral administration. Various doses of the test agent are administered and an inhibitory dose which supresses intestinal […] by 50% of maximum is determined. This value is designated the ID50. N-benzyl-N'-tert-butyl-N-phenylforamidine hydrochloride compared to papaverine is about 1.5 times as potent in this test.

[5] = tested on: aconitine induced atrial arrhythmia; assay: In vivo dog arrhythmia test (aconitine induced atrial arrhythmia); details: Canis lupus familiaris, iv, read-out: effective dose restoring normal cardiac rhythm
Source text: In the in vivo dog arrhythmia test, the chest of an anesthetized dog is opened in the mid-line and the right and left atrial appendages exposed to small slits in the pericardium. Bypolar recording electrodes are affixed to atrial surfaces and a 4 × 4 mm. piece of clean cloth is fixed to surface of the right auricular appendage. Control recordings are made of various heart functions including femoral arterial blood pressure and right and left atrail electrograms. Atrial arrhythmia is then induced by placing 3-5 drops of a solution of aconitine on the cloth which is fixed to the right atrium. An irregular, rapid atrial rate is produced within 1 minute. Throughout the test, fresh aconitine (2-3 drops) is placed on the cloth at 10 minute intervals. The test compound is administered intravenously 5 minutes after the initial establishment of the arrhythmia and infusion continued at a slow rate until an effective dose which re-establishes normal rhythm of the heart is obtained.
The Formula Ia N-phenylamidines are effective both orally and parenterally as antiarrhythmic agents. For instance, intravenous administration of about 2.5 mg./kg. of 3,4,5,6-tetrahydro-7-[(N-phenyl)-phenethylamino]-2H-azepine or 4,5,6,7,8,9-hexahydro-2-(N-phenylphenethyl-amino)-3H-azonine effectively restores normal cardiac rhythm to induced arrhythmia in the dog.

[6] = tested on: chloroform induced arrhythmia; assay: Chloroform induced arrhythmia in the mouse; format: in vivo; details: ip, intraperitoneal, read-out: ED50 preventing chloroform induced arrhythmia
Source text: Another in vivo test indicative of antiarrhythmic activity is chloroform induced arrhythmia in the mouse.

[7] = tested on: guinea pig isolated tracheal spiral; assay: In vitro guinea pig isolated tracheal spiral test; format: cell-based
Experimental: Another in vitro test measuring the smooth muscle relaxant properties of the compounds of the present invention employs the guinea pig isolated tracheal spiral and is carried out essentially as described by Lish, et al., J. Pharmacol. Exp. Therap., 129, 191 (1960). As illustrative of the activity of the compounds of the present invention in this test there can be mentioned 3-[(N-1-pyrrolin-2-yl-p-anisidino)methyl]indole hydrochloride which is about 1.7 times as potent as aminophylline.

[8] = tested on: histamine challenged guinea pig; assay: Histamine challenged guinea pig aerosol test (bronchodilation); format: in vivo; details: oral
Source text: As a bronchodilating agent, 3-[(N-1-pyrrolin-2-yl-p-anisidino)methyl]indolehydrochloride is of particular interest. In the histamine challenged guinea pig aerosol test, refer to Turner, Screening Methods In Pharmacology, page 214 (1965) (Academic Press, New York), this compound is about 1.4 times as potent as aminophylline when administered orally.

[9] = rabbit left atrium, 30° C., Chenoweth's solution

Structure (SMILES): Cl.c1ccc(CCN(C2=NCCCCCCC2)c2ccccc2)cc1 [Example 61, 4,5,6,7,8,9-Hexahydro-2-(N-phenylphenethylamino)-3H-azonine Hydrochloride]
- EC50 [1, 9]: 1.9 µg/mL

Structure (SMILES): c1ccc(N=C2CCCN2)cc1 [2-phenyliminopyrrolidine, reference compound]
- diuretic activity (in words) ([2]; Lipschitz method): substantially inactive as a diuretic agent

Structure (SMILES): CC(C)(C)N=CN(CCc1ccccc1)c1ccccc1.Cl [Example 1, N'-tert-Butyl-N-phenethyl-N-phenylformamidine hydrochloride]
- smooth muscle relaxant potency relative to papaverine (times as potent) [3]: 5

Structure (SMILES): CC(C)(C)N=CN(Cc1ccccc1)c1ccccc1.Cl [Example 2, N-Benzyl-N'-tert.-butyl-N-phenylformamidine hydrochloride]
- potency relative to papaverine (times as potent, ID50) [4]: about 1.5

Structure (SMILES): C=C[C@H]1C[N@@]2CC[C@H]1C[C@@H]2[C@@H](O)c1ccnc2ccc(OC)cc12 [Quinidine, reference compound]
- minimal effective dose [5]: 6 mg/kg
- EC50 [1]: 18 µg/mL (≈ 55.5 µM)

Structure (SMILES): NS(=O)(=O)c1cc2c(cc1Cl)NCNS2(=O)=O [Hydrochlorothiazide, reference compound]
- ratio of sodium ion excretion to potassium ion excretion ([2]; oral, 6.25 mg./kg.): 1.65

Structure (SMILES): Cl.c1ccc(CCN(C2=NCCCCC2)c2ccccc2)cc1 [Example 10, 3,4,5,6-Tetrahydro-7-[(N-phenyl)phenethylamino]-2H-azepine hydrochloride]
- EC50 [1, 9]: 7.2 µg/mL

Structure (SMILES): c1ccc(CCN(C2=NCCCCCC2)c2ccccc2)cc1 [Example 60, 3,4,5,6,7,8-Hexahydro-2-(N-phenylphenethylamino)azocine hydrochloride hemihydrate]
- EC50 [1, 9]: 2.5 µg/mL

Structure (SMILES): c1ccc(CCN(C2=NCCCCC2)c2ccccc2)cc1 [3,4,5,6-tetrahydro-7-[(N-phenyl)phenethylamino]-2H-azepine]
- ED50 [6]: 11.5 mg/kg
- minimal effective dose [5]: ~2.5 mg/kg

Structure (SMILES): c1ccc(CCN(C2=NCCCCCCC2)c2ccccc2)cc1 [4,5,6,7,8,9-hexahydro-2-(N-phenylphenethylamino)-3H-azonine]
- minimal effective dose [5]: ~2.5 mg/kg

Structure (SMILES): COc1ccc(N(Cc2c[nH]c3ccccc23)C2=NCCC2)cc1 [Example 34, 3-[N-1-Pyrrolin-2-yl-p-anisidino)methyl]indole hydrochloride]
- potency relative to aminophylline (times as potent) [7]: about 1.7
- bronchodilating potency relative to aminophylline (times as potent) [8]: about 1.4

Structure (SMILES): CC1CCC(N(Cc2c[nH]c3ccccc23)c2ccccc2)=N1.Cl (stereo not shown) [Example 37, 3-[[N-(5-methyl-1-pyrrolin-2yl)anilino]methyl]indole hydrochloride]
- smooth muscle relaxant potency relative to papaverine (times as potent) [3]: 1.4

Structure (SMILES): CC1CCC(N(Cc2ccccc2)c2ccccc2)=N1.Cl (stereo not shown) [Example 5, 5-Methyl-2-(N-phenylbenzylamino)-1-pyrroline hydrochloride]
- ratio of sodium ion excretion to potassium ion excretion ([2]; oral, 6.25 mg./kg.): 2.7
- ratio for potassium ion excretion vs urea control group ([2]; oral, 6.25 mg./kg., 5 hours): 0.75
- ratio for sodium ion excretion vs urea control group ([2]; oral, 6.25 mg./kg., 5 hours): 2.03
- ratio for volume excretion vs urea control group ([2]; oral, 6.25 mg./kg., 5 hours): 2.32

Reference: patent US4072675A, “N-phenyl amidines” (Mead Johnson & Company, priority 1975, dated 1978)
